Results published in patent US10550111B2, “Pyrimidine urea compound containing isoxazolines and use thereof” (SHENYANG SINOCHEM AGROCHEMICALS R&D CO., LTD, priority 2014, dated 2020).

Tests used:
Type in all cases: in vivo
[1] = test system: broad-leaf weeds and grass weeds; assay: General screening of herbicidal activity in greenhouse; conditions: 1000 g a.i./hm^2
Outline: (§1)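 Visual growth inhibition rating (0 no effect to 100 all weeds dead or not emerged) after track-sprayer application (500 L/hm²) of emulsifiable concentrate. Treatments either pre-emergence, 24 h after sowing, or post-emergence at 2–3-leaf grass and 2–4-leaf broad-leaf stage, greenhouse-grown.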

[2] = test system: Zinnia elegans Jacq.; assay: Bioassay of herbicidal activity in greenhouse (further screening)
Outline: as §1

[3] = test system: Abutilon theophrasti Medic.; assay: as above
Outline: as §1

[4] = test system: Echinochloa crus-galli (L.) Beauv.; assay: as above
Outline: as §1

[5] = test system: Setaria glauca (L.) Beauv.; assay: as above
Outline: as §1

CCOCCOC(=O)C1(C)CC(c2cc(-n3c(=O)cc(C(F)(F)F)n(C)c3=O)c(F)cc2Cl)=NO1 (stereo not shown) [Compound 15]
pre-emergence and post-emergence herbicidal activity against broad-leaf weeds and grass weeds [1]: good
Growth inhibition rate, Post-emergence treatment, Zinnia elegans Jacq. ([2]; dose 7.5 g a.i./hm^2): 100%
Growth inhibition rate, Post-emergence treatment, Zinnia elegans Jacq. ([2]; dose 15 g a.i./hm^2): 100%
Growth inhibition rate, Post-emergence treatment, Zinnia elegans Jacq. ([2]; dose 30.0 g a.i./hm^2): 100%
Growth inhibition rate, Post-emergence treatment, Zinnia elegans Jacq. ([2]; dose 60.0 g a.i./hm^2): 100%
Growth inhibition rate, Post-emergence treatment, Zinnia elegans Jacq. ([2]; dose 120.0 g a.i./hm^2): 100%
Growth inhibition rate, Post-emergence treatment, Abutilon theophrasti Medic. ([3]; dose 7.5 g a.i./hm^2): 65%
Growth inhibition rate, Post-emergence treatment, Abutilon theophrasti Medic. ([3]; dose 15 g a.i./hm^2): 100%
Growth inhibition rate, Post-emergence treatment, Abutilon theophrasti Medic. ([3]; dose 30.0 g a.i./hm^2): 100%
Growth inhibition rate, Post-emergence treatment, Abutilon theophrasti Medic. ([3]; dose 60.0 g a.i./hm^2): 100%
Growth inhibition rate, Post-emergence treatment, Abutilon theophrasti Medic. ([3]; dose 120.0 g a.i./hm^2): 100%
Growth inhibition rate, Post-emergence treatment, Echinochloa crus-galli (L.) Beauv. ([4]; dose 7.5 g a.i./hm^2): 70%
Growth inhibition rate, Post-emergence treatment, Echinochloa crus-galli (L.) Beauv. ([4]; dose 15 g a.i./hm^2): 85%
Growth inhibition rate, Post-emergence treatment, Echinochloa crus-galli (L.) Beauv. ([4]; dose 30.0 g a.i./hm^2): 100%
Growth inhibition rate, Post-emergence treatment, Echinochloa crus-galli (L.) Beauv. ([4]; dose 60.0 g a.i./hm^2): 100%
Growth inhibition rate, Post-emergence treatment, Echinochloa crus-galli (L.) Beauv. ([4]; dose 120.0 g a.i./hm^2): 100%
Growth inhibition rate, Post-emergence treatment, Setaria glauca (L.) Beauv. ([5]; dose 7.5 g a.i./hm^2): 75%
Growth inhibition rate, Post-emergence treatment, Setaria glauca (L.) Beauv. ([5]; dose 15 g a.i./hm^2): 98%
Growth inhibition rate, Post-emergence treatment, Setaria glauca (L.) Beauv. ([5]; dose 30.0 g a.i./hm^2): 100%
Growth inhibition rate, Post-emergence treatment, Setaria glauca (L.) Beauv. ([5]; dose 60.0 g a.i./hm^2): 100%
Growth inhibition rate, Post-emergence treatment, Setaria glauca (L.) Beauv. ([5]; dose 120.0 g a.i./hm^2): 100%

CCCCOC(=O)C1(C)CC(c2cc(-n3c(=O)cc(C(F)(F)F)n(C)c3=O)ccc2Cl)=NO1 (stereo not shown) [Compound 286]
pre-emergence and post-emergence herbicidal activity against broad-leaf weeds and grass weeds [1]: good
Growth inhibition rate, Post-emergence treatment, Zinnia elegans Jacq. ([2]; dose 37.5 g a.i./hm^2): 85%
Growth inhibition rate, Post-emergence treatment, Zinnia elegans Jacq. ([2]; dose 150 g a.i./hm^2): 100%
Growth inhibition rate, Post-emergence treatment, Zinnia elegans Jacq. ([2]; dose 600 g a.i./hm^2): 100%
Growth inhibition rate, Pre-emergence treatment, Zinnia elegans Jacq. ([2]; dose 37.5 g a.i./hm^2): 0%
Growth inhibition rate, Pre-emergence treatment, Zinnia elegans Jacq. ([2]; dose 150 g a.i./hm^2): 0%
Growth inhibition rate, Pre-emergence treatment, Zinnia elegans Jacq. ([2]; dose 600 g a.i./hm^2): 10%
Growth inhibition rate, Post-emergence treatment, Abutilon theophrasti Medic. ([3]; dose 37.5 g a.i./hm^2): 90%
Growth inhibition rate, Post-emergence treatment, Abutilon theophrasti Medic. ([3]; dose 150 g a.i./hm^2): 100%
Growth inhibition rate, Post-emergence treatment, Abutilon theophrasti Medic. ([3]; dose 600 g a.i./hm^2): 100%
Growth inhibition rate, Pre-emergence treatment, Abutilon theophrasti Medic. ([3]; dose 37.5 g a.i./hm^2): 0%
Growth inhibition rate, Pre-emergence treatment, Abutilon theophrasti Medic. ([3]; dose 150 g a.i./hm^2): 0%
Growth inhibition rate, Pre-emergence treatment, Abutilon theophrasti Medic. ([3]; dose 600 g a.i./hm^2): 15%
Growth inhibition rate, Post-emergence treatment, Echinochloa crus-galli (L.) Beauv. ([4]; dose 37.5 g a.i./hm^2): 20%
Growth inhibition rate, Post-emergence treatment, Echinochloa crus-galli (L.) Beauv. ([4]; dose 150 g a.i./hm^2): 60%
Growth inhibition rate, Post-emergence treatment, Echinochloa crus-galli (L.) Beauv. ([4]; dose 600 g a.i./hm^2): 75%
Growth inhibition rate, Pre-emergence treatment, Echinochloa crus-galli (L.) Beauv. ([4]; dose 37.5 g a.i./hm^2): 0%
Growth inhibition rate, Pre-emergence treatment, Echinochloa crus-galli (L.) Beauv. ([4]; dose 150 g a.i./hm^2): 5%
Growth inhibition rate, Pre-emergence treatment, Echinochloa crus-galli (L.) Beauv. ([4]; dose 600 g a.i./hm^2): 15%
Growth inhibition rate, Post-emergence treatment, Setaria glauca (L.) Beauv. ([5]; dose 37.5 g a.i./hm^2): 15%
Growth inhibition rate, Post-emergence treatment, Setaria glauca (L.) Beauv. ([5]; dose 150 g a.i./hm^2): 70%
Growth inhibition rate, Post-emergence treatment, Setaria glauca (L.) Beauv. ([5]; dose 600 g a.i./hm^2): 75%
Growth inhibition rate, Pre-emergence treatment, Setaria glauca (L.) Beauv. ([5]; dose 37.5 g a.i./hm^2): 0%
Growth inhibition rate, Pre-emergence treatment, Setaria glauca (L.) Beauv. ([5]; dose 150 g a.i./hm^2): 10%
Growth inhibition rate, Pre-emergence treatment, Setaria glauca (L.) Beauv. ([5]; dose 600 g a.i./hm^2): 30%
